Patent US20090105305A1, “Therapeutic Agents - 550” (AstraZeneca AB, priority 2006, published 2009)

Target: T1, human Fatty Acid Synthase (Homo sapiens, UniProt P49327)
T1 construct: made in house
Assay: Human FAS enzyme assay (decrease in NADPH fluorescence)
Type: biochemical
Conditions: for inhibition at 100 µM: % inhibition at a concentration of 100 micromolar
Summary of the method: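 In-house human FAS (0.4 μg) was preincubated 15 min at RT with compound and NADPH (added at 166.6 μM) in 0.1 M Tris pH 7.5, 1 mM glutathione, 0.05% BSA. Malonyl-/acetyl-CoA (500/150 μM in substrate mix) was then added for 60 min. Readout was NADPH fluorescence loss (ex 340/em 460) over a time-zero read, with IC50 from a sigmoid fit.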

T1 sequence (P49327 whole entry): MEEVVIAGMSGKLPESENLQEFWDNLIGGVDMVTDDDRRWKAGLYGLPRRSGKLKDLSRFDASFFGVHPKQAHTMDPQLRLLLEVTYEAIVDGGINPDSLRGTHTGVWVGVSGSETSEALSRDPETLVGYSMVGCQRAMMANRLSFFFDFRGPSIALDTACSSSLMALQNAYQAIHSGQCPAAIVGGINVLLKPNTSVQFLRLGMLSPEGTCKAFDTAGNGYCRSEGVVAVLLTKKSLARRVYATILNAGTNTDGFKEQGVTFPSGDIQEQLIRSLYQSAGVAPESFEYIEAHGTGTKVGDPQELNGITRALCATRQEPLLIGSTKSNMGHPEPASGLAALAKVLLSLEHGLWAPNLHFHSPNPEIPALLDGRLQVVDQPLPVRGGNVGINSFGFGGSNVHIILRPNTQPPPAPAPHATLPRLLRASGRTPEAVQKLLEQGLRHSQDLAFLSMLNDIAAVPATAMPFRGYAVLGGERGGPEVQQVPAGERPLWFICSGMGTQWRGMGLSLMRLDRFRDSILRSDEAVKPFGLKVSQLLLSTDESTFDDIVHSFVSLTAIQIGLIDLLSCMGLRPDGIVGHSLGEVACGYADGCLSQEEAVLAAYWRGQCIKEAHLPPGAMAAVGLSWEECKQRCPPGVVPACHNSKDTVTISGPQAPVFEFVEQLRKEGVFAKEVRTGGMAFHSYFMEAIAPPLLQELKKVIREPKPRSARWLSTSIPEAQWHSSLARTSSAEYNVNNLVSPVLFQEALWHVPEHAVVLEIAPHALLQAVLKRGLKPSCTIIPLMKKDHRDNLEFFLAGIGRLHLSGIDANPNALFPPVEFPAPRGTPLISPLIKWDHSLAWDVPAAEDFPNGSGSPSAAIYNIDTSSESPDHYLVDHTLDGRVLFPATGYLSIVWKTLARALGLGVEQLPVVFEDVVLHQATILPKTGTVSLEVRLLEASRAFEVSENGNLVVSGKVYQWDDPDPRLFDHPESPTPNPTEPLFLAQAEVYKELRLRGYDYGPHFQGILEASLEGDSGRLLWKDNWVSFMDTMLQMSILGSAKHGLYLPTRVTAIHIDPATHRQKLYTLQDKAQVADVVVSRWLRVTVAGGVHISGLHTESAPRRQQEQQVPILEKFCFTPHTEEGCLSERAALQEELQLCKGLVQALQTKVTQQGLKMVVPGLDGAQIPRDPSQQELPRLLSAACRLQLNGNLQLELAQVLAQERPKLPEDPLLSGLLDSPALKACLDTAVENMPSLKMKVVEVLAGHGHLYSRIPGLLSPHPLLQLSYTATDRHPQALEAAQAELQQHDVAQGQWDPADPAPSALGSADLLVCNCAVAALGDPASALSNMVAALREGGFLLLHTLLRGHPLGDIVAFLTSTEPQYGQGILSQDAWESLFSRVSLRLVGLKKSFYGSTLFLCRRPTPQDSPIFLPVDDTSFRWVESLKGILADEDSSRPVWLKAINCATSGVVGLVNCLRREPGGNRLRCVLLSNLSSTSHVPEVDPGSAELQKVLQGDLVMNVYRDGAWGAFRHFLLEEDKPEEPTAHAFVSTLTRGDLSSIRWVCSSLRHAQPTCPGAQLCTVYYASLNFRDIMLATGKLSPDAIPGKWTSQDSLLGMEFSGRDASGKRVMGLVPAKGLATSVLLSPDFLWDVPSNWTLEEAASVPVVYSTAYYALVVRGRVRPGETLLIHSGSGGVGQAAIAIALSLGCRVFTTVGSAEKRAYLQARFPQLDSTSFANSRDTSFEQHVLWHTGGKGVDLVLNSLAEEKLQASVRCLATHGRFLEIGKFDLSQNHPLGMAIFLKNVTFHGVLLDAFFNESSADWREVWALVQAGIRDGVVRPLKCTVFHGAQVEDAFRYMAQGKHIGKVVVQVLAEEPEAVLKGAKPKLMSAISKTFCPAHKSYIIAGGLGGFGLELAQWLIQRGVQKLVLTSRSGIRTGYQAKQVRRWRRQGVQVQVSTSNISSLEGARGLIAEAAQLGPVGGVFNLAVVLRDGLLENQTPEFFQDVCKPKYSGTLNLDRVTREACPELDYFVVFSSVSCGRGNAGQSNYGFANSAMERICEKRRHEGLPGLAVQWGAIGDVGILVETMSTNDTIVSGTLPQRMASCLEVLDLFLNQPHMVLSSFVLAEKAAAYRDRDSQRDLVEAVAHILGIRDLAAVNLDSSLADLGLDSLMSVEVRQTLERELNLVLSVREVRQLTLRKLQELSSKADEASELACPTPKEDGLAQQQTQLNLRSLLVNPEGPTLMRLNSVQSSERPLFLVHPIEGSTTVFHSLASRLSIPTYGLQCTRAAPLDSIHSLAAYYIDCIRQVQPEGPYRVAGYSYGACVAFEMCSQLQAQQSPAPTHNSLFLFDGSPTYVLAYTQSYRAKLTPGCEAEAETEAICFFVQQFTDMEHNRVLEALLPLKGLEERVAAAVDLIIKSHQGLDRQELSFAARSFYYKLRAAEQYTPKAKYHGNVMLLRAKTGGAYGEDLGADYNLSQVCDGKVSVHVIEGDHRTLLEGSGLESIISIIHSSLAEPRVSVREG

Question: Which “IC50s in the range of about 0.001 μM to about 30 μM” value (compounds excluded from the claims by proviso) does the source give for `Cc1ccc(C(=O)N2CCC(O)(c3ccccc3)CC2)cc1NS(C)(=O)=O` [N-[5-(4-hydroxy-4-phenylpiperidine-1-carbonyl)-2-methylphenyl]methanesulfonamide] here?
Answer: do not have IC50s in the range of about 0.001 μM to about 30 μM

Question: How did the inhibition at 100 µM turn out when `CS(=O)(=O)Nc1cc(C(=O)N2CCC(c3ccc(C#N)cc3)CC2)ccc1S(C)(=O)=O` [Example 210, N-[5-[4-(4-cyanophenyl)piperidine-1-carbonyl]-2-methylsulfonylphenyl]methanesulfonamide] was run?
Answer: 91%

Question: How did the inhibition at 100 µM turn out when `Cc1ccc(C(=O)N2CCC(c3ccc(C#N)cc3)CC2)cc1NS(=O)(=O)c1cccc(C#N)c1` [Example 21, 3-cyano-N-[5-[4-(4-cyanophenyl)piperidine-1-carbonyl]-2-methyl-phenyl]benzenesulfonamide] was run?
Answer: 90%

Question: `Cc1ccc(C(=O)N2CCC(c3ccc(Oc4ccccn4)cc3)CC2)cc1NS(C)(=O)=O` [Example 187, N-[2-methyl-5-[4-(4-pyridin-2-yloxyphenyl)piperidine-1-carbonyl]phenyl]methanesulfonamide] was tested. Which inhibition at 100 µM did it give?
Answer: 100%

Question: With `Cc1ccc(NS(=O)(=O)Cc2ccc(S(C)(=O)=O)cc2)cc1C(=O)N1CCC(c2ccc(C#N)cc2)CC1` [Example 54, N-[3-[4-(4-cyanophenyl)piperidine-1-carbonyl]-4-methyl-phenyl]-1-(4-methylsulfonylphenyl)methanesulfonamide] as the molecule, how does the inhibition at 100 µM read?
Answer: 84%

Question: `Cc1ccc(C(=O)N2CCC(c3ccc(C#N)cc3)CC2)cc1NS(=O)(=O)C1CCN(S(C)(=O)=O)C1` (centres unmarked) [Example 154, N-[5-[4-(4-cyanophenyl)piperidine-1-carbonyl]-2-methyl-phenyl]-1-methylsulfonyl-pyrrolidine-3-sulfonamide] was tested. Which inhibition at 100 µM did it give?
Answer: 99%

Question: With `COC(=O)NCc1ccc(C2CCN(C(=O)c3ccc(C)c(NS(C)(=O)=O)c3)CC2)cc1` [Example 239, Methyl N-[[4-[1-(3-methanesulfonamido-4-methylbenzoyl)piperidin-4-yl]phenyl]methyl]carbamate] as the molecule, how does the inhibition at 100 µM read?
Answer: 89.1%

Question: Which inhibition at 100 µM does the source give for `Cc1ccc(NS(=O)(=O)c2ccc(Cl)s2)cc1C(=O)N1CCC(c2ccc(C#N)cc2)CC1` [Example 45, 5-chloro-N-[3-[4-(4-cyanophenyl)piperidine-1-carbonyl]-4-methyl-phenyl]thiophene-2-sulfonamide] here?
Answer: 83%
